From patent US9399626B2, “2-thiopyrimidinones” (Pfizer Inc., priority 2011, dated 2016)
Structures can show the parent of a compound that is named as a salt.

Target: T1, MPO (purified from human polynuclear leukocytes) (Homo sapiens, UniProt P05164)
T1 construct: purified from human polynuclear leukocytes; purchased Calbiochem/EMD Biosciences; host or cells: human polynuclear leukocytes (natural source)
Assay: MPO Amplex Red Activity Assay
Assay type: biochemical
Details: Table 1, 2 μM H2O2, pH 7.4
Procedure: MPO Amplex Red Activity Assay.
MPO peroxidase activity was measured by monitoring the formation of resorufin generated from the oxidation of Amplex Red (10-Acetyl-3,7-dihydroxyphenoxazine) (Invitrogen, Carlsbad, Calif.) by MPO (Gomes, Fernandes et al. 2005). Assay mixtures (100 μL total volume) contained 50 mM NaPi pH 7.4, 150 mM NaCl, 1 mM DTPA (diethylenetriaminepentaacetic acid), 2% DMSO, 2 μM H2O2, 30 μM Amplex Red and the reaction was initiated by the addition of […] (purified from human polynuclear leukocytes and purchased from Calbiochem/EMD Biosciences, Gibbstown, N.J.). All assays were performed in 96-well, half-area, black, nonbinding surface, polystyrene plates (Corning) and the production of resorufin (excitation 530 nm, emission 580 nm) was monitored every 20 sec on a Spectramax M2 Microplate Spectrophotometer (Molecular Devices, Palo Alto, Calif.) equipped with Softmax Pro software (Molecular Devices, Palo Alto, Calif.). Reactions to determine the background reaction rate consisted of all assay components and 4 μL of 500 unit/mL bovine catalase (Sigma) in 50 mM KPi pH 7.0. The background rate was subtracted from each reaction progress curve. All data was analyzed using non-linear regression analysis in Microsoft Excel and Kaleidagraph (Synergy Software).
To determine inhibitor potency (kinact/KI) against MPO, the first 600 sec of the reaction progress curves were fit to equation 1, where Vo is the initial rate in RFU/sec and t is time in seconds, to obtain the first order rate constant for enzyme inactivation (kobs) at each inhibitor concentration.
[formula] Equation 1 is a variation of the standard equation for slow binding inhibition where the steady state velocity (Vs) is set to zero. Each kobs value was corrected for auto-inactivation of the enzyme by subtracting the kobs value for the uninhibited reaction. The corrected kobs values were then plotted versus inhibitor concentration ([I]) and fit to equation 2
[formula] where kinact is the maximal rate of inactivation and KI is the inhibitor concentration that yields half the rate of maximal inactivation (Copeland 2005).
Table 1 and (1A) below provides the myeloperoxidase inhibitory activity for the Examples below in accordance with the above-described assay.

T1 sequence (P05164 279-745 limits assumed): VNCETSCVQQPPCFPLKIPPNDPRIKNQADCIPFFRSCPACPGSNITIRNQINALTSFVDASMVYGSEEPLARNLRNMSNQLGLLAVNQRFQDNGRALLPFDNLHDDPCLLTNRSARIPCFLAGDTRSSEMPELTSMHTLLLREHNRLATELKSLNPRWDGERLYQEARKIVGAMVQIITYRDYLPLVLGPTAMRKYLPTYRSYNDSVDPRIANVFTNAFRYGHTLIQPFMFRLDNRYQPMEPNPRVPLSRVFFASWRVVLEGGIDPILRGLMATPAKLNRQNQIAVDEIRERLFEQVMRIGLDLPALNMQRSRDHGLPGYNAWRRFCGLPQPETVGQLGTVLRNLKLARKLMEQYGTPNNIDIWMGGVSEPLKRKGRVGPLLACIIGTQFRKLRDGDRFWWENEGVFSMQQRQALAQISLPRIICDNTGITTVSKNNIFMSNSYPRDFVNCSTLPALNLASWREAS
T1 sequence (P05164 165-273 limits assumed): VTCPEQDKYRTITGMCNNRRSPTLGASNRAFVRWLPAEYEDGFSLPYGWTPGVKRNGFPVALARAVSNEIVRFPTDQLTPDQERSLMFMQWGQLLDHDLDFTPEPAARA

SMILES | MPO kinact/Ki
COc1ccc(Cl)cc1-c1cc(=O)[nH]c(=S)n1CC(N)=O [Example 1, 2-(6-(5-Chloro-2-methoxyphenyl)-4-oxo-2-thioxo-3,4-dihydropyrimidin-1(2H)-yl)acetamide] | 11600 1/s per M
COc1ccc(OC)c(-c2cc(=O)[nH]c(=S)n2CC(N)=O)c1 [Example 2, 2-(6-(2,5-Dimethoxyphenyl)-4-oxo-2-thioxo-3,4-dihydropyrimidin-1(2H)-yl)acetamide] | 12500 1/s per M
COc1ccc(-c2cc(=O)[nH]c(=S)n2CCO)c(OC)n1 [Example 4, 6-(2,6-Dimethoxypyridin-3-yl)-1-(2-hydroxyethyl)-2-thioxo-2,3-dihydropyrimidin-4(1H)-one] | 8790 1/s per M
COc1ccc(-c2cc(=O)[nH]c(=S)n2CCNC(=O)OC(C)(C)C)c(OC)c1 [Example 5, tert-butyl 2-(6-(2,4-dimethoxyphenyl)-4-oxo-2-thioxo-3,4-dihydropyrimidin-1(2H)-yl)ethylcarbamate] | 1280 1/s per M
COc1ccc(-c2cc(=O)[nH]c(=S)n2CCN)c(OC)c1 [Example 6, 1-(2-aminoethyl)-6-(2,4-dimethoxyphenyl)-2-thioxo-2,3-dihydropyrimidin-4(1H)-one hydrochloride] | 12900 1/s per M
COc1ccc(-c2cc(=O)[nH]c(=S)n2CCN=C(N)N)c(OC)c1 [Example 7, 2-(2-(6-(2,4-dimethoxyphenyl)-4-oxo-2-thioxo-3,4-dihydropyrimidin-1(2H)-yl)ethyl)guanidine] | 10900 1/s per M
COc1ccc(-c2cc(=O)[nH]c(=S)n2CCNC(=O)CN)c(OC)c1 [Example 8, 2-amino-N-(2-(6-(2,4-dimethoxyphenyl)-4-oxo-2-thioxo-3,4-dihydropyrimidin-1(2H)-yl)ethyl)acetamide hydrochloride] | 12100 1/s per M
COCCn1c(-c2ccccn2)cc(=O)[nH]c1=S [Example 10, 1-(2-Methoxyethyl)-6-(pyridin-2-yl)-2-thioxo-2,3-dihydropyrimidin-4(1H)-one] | 619 1/s per M
COc1ccc(-c2cc(=O)[nH]c(=S)n2CCO)cc1 [Example 12, 1-(2-hydroxyethyl)-6-(4-methoxyphenyl)-2-thioxo-2,3-dihydropyrimidin-4(1H)-one] | 5010 1/s per M
COCCn1c(-c2ccc(C#N)cc2)cc(=O)[nH]c1=S [Example 13, 4-[3-(2-methoxyethyl)-6-oxo-2-thioxo-1,2,3,6-tetrahydro-pyrimidin-4-yl]benzonitrile] | 745 1/s per M
NCCn1c(-c2ccc3c(c2)CCO3)cc(=O)[nH]c1=S [Example 14, 1-(2-aminoethyl)-6-(2,3-dihydro-1-benzofuran-5-yl)-2-thioxo-2,3-dihydropyrimidin-4(1H)-one hydrochloride] | 5310 1/s per M
O=c1cc(-c2ccc3c(c2)CCO3)n(CCO)c(=S)[nH]1 [Example 15, 6-(2,3-dihydro-1-benzofuran-5-yl)-1-(2-hydroxyethyl)-2-thioxo-2,3-dihydropyrimidin-4(1H)-one] | 5420 1/s per M
O=c1cc(-c2cccc3c2OCC3)n(CCO)c(=S)[nH]1 [Example 16, 6-(2,3-dihydro-1-benzofuran-7-yl)-1-(2-hydroxyethyl)-2-thioxo-2,3-dihydropyrimidin-4(1H)-one] | 6510 1/s per M
COc1ccccc1-c1cc(=O)[nH]c(=S)n1CC(N)=O [Example 17, 2-[6-(2-methoxyphenyl)-4-oxo-2-thioxo-3,4-dihydropyrimidin-1(2H)-yl]acetamide] | 4460 1/s per M
COc1ccccc1-c1cc(=O)[nH]c(=S)n1CCCN [Example 18, 1-(3-aminopropyl)-6-(2-methoxyphenyl)-2-thioxo-2,3-dihydropyrimidin-4(1H)-one hydrochloride] | 8280 1/s per M
COc1ncc(C)cc1-c1cc(=O)[nH]c(=S)n1CCN [Example 19, 1-(2-aminoethyl)-6-(2-methoxy-5-methylpyridin-3-yl)-2-thioxo-2(3-dihydropyrimidin-4(1H)-one trifluoroacetate] | 1960 1/s per M
COCCn1c(-c2ncccc2OC)cc(=O)[nH]c1=S [Example 20, 1-(2-methoxyethyl)-6-(3-methoxypyridin-2-yl)-2-thioxo-2,3-dihydropyrimidin-4(1H)-one] | 1330 1/s per M
COCCn1c(-c2cccnc2OC)cc(=O)[nH]c1=S [Example 23, 1-(2-methoxyethyl)-6-(2-methoxypyridin-3-yl)-2-thioxo-2,3-dihydropyrimidin-4(1H)-one] | 991 1/s per M
CSc1ccccc1-c1cc(=O)[nH]c(=S)n1CCO [Example 24, 1-(2-hydroxyethyl)-6-[2-(methylthio)phenyl]-2-thioxo-2,3-dihydropyrimidin-4(1H)-one] | 7640 1/s per M
NC(=O)Cn1c(-c2cccc3[nH]ccc23)cc(=O)[nH]c1=S [Example 29, 2-[6-(1H-indol-4-yl)-4-oxo-2-thioxo-3,4-dihydropyrimidin-1(2H)-yl]acetamide] | 14900 1/s per M

Other lines, results leading:

MPO kinact/Ki | SMILES
29300 1/s per M | COc1ccc(-c2cc(=O)[nH]c(=S)n2CCO)c(OC)c1 [Example 3, 6-(2,4-Dimethoxyphenyl)-1-(2-hydroxyethyl)-2-thioxo-2,3-dihydropyrimidin-4(1H)-one]
15000 1/s per M | COCCn1c(-c2cc(OC)ccc2OC)cc(=O)[nH]c1=S [Example 9, 6-(2,5-dimethoxyphenyl)-1-(2-methoxyethyl)-2-thioxo-2,3-dihydropyrimidin-4(1H)-one]
6880 1/s per M | COc1ccccc1-c1cc(=O)[nH]c(=S)n1CCN [Example 11, 1-(2-aminoethyl)-6-(2-methoxyphenyl)-2-thioxo-2,3-dihydropyrimidin-4(1H)-one hydrochloride]
4530 1/s per M | COc1nc(C)ccc1-c1cc(=O)[nH]c(=S)n1CCO [Example 21, 1-(2-hydroxyethyl)-6-(2-methoxy-6-methylpyridin-3-yl)-2-thioxo-2,3-dihydropyrimidin-4(1H)-one]
6340 1/s per M | COc1ccc(C)nc1-c1cc(=O)[nH]c(=S)n1CCO [Example 22, 1-(2-hydroxyethyl)-6-(3-methoxy-6-methylpyridin-2-yl)-2-thioxo-2,3-dihydropyrimidin-4(1H)-one]
9210 1/s per M | COc1cc(F)ccc1-c1cc(=O)[nH]c(=S)n1CCN [Example 25, 1-(2-aminoethyl)-6-(4-fluoro-2-methoxyphenyl)-2-thioxo-2,3-dihydropyrimidin-4(1H)-one hydrochloride]
3180 1/s per M | COc1ccc(F)cc1-c1cc(=O)[nH]c(=S)n1CCN.Cl [Example 26, 1-(2-aminoethyl)-6-(5-fluoro-2-methoxyphenyl)-2-thioxo-2,3-dihydropyrimidin-4(1H)-one hydrochloride]
15800 1/s per M | COc1cc(F)ccc1-c1cc(=O)[nH]c(=S)n1CCO [Example 27, 6-(4-fluoro-2-methoxyphenyl)-1-(2-hydroxyethyl)-2-thioxo-2,3-dihydropyrimidin-4(1H)-one]
13700 1/s per M | COc1ccc(F)cc1-c1cc(=O)[nH]c(=S)n1CCO [Example 28, 6-(5-fluoro-2-methoxyphenyl)-1-(2-hydroxyethyl)-2-thioxo-2,3-dihydropyrimidin-4(1H)-one]
